{"source": "ChEMBL document CHEMBL1158459", "about": "“Discovery of a peroxisome proliferator activated receptor gamma (PPARgamma) modulator with balanced PPARalpha activity for the treatment of type 2 diabetes and dyslipidemia” (J Med Chem, 2009)", "key": {"Syrian golden hamster [1]": {"system": "Syrian golden hamster", "test": "Antidiabetic activity in Syrian golden hamster assessed as reduction in cholesterol level at 0.3 mg/kg, po once daily for 9 days relative to control", "type": "functional, Mesocricetus auratus", "set-up": "scale not given: the % may be the effect or the level left"}, "[2]": {"test": "AUC in C57BLKS/J-m+/+Leprdb db/db mouse at 10 mg/kg, po once daily for 11 days", "type": "ADME, organism-based", "set-up": "dose 10 mg/kg, route oral", "conditions": "plasma"}, "[3]": {"test": "AUC in Syrian golden hamster at 3 mg/kg, po once daily for 9 days", "type": "ADME, organism-based, Mesocricetus auratus", "set-up": "dose 3 mg/kg, route oral", "conditions": "plasma"}, "Canis familiaris [4]": {"system": "Canis familiaris", "test": "Antidiabetic activity in Beagle dog assessed as reduction in total cholesterol level at 3 mg/kg, po once daily for 14 days relative to control", "type": "functional, Canis lupus familiaris", "set-up": "scale not given: the % may be the effect or the level left"}, "[5]": {"biological_target": "Oxysterols receptor LXR-beta (Homo sapiens) (UniProt P55055)", "sequence (P55055 whole entry)": "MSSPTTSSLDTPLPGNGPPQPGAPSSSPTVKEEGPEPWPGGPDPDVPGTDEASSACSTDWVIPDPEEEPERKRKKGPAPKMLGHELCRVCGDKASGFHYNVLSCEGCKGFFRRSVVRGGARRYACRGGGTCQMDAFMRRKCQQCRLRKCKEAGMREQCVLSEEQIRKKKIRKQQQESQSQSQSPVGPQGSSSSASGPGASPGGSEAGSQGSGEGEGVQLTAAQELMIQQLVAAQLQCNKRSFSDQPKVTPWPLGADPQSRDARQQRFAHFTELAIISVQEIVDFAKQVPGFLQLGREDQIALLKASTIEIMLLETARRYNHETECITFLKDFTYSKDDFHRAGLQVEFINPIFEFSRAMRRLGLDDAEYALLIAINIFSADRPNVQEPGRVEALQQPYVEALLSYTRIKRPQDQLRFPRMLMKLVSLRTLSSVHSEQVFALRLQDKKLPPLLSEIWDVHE", "test": "Activity at LXRbeta receptor up to 10 uM by transactivation assay"}, "Cytochrome P450 2D6": {"biological_target": "Cytochrome P450 2D6 (Homo sapiens, UniProt P10635)", "sequence (P10635 whole entry)": "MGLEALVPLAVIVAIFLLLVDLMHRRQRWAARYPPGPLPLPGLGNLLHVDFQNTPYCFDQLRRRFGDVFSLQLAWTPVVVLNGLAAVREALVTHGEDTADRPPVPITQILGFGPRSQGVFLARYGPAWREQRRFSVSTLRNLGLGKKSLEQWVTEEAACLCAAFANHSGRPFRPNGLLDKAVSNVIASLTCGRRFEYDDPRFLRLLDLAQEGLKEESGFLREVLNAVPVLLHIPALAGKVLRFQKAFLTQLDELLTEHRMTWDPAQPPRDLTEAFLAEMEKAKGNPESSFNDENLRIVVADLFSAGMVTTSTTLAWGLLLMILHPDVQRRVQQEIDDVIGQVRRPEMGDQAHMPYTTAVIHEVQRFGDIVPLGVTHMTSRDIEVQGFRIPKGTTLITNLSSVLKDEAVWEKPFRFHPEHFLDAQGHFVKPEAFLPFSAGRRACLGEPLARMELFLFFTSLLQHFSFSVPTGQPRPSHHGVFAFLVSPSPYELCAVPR", "test": "Inhibition of CYP2D6", "type": "ADME"}, "Rattus norvegicus [6]": {"system": "Rattus norvegicus", "test": "Toxicity in Zucker fa/fa rat assessed as increase in heart weight at 15 mg/kg, po treated once daily for 7 days", "type": "organism-based", "set-up": "dose 15 mg/kg, route oral", "conditions": "in vivo, 168 h"}, "[7]": {"test": "AUC in high fat diet-fed streptozotocin-treated mouse at 30 mg/kg, po once daily for 12 days", "type": "ADME, organism-based", "set-up": "dose 30 mg/kg, route oral", "conditions": "plasma"}, "[8]": {"test": "AUC in Beagle dog at 3 mg/kg, po once daily for 14 days", "type": "ADME, organism-based, Canis lupus familiaris", "set-up": "dose 3 mg/kg, route oral", "conditions": "plasma"}, "Syrian golden hamster [9]": {"system": "Syrian golden hamster", "test": "Antidiabetic activity in Syrian golden hamster assessed as reduction in cholesterol level at 3 mg/kg, po once daily for 9 days relative to control", "type": "functional, Mesocricetus auratus", "set-up": "scale not given: the % may be the effect or the level left"}, "[10]": {"biological_target": "Estrogen receptor beta (Homo sapiens) (UniProt Q92731)", "sequence (Q92731 whole entry)": "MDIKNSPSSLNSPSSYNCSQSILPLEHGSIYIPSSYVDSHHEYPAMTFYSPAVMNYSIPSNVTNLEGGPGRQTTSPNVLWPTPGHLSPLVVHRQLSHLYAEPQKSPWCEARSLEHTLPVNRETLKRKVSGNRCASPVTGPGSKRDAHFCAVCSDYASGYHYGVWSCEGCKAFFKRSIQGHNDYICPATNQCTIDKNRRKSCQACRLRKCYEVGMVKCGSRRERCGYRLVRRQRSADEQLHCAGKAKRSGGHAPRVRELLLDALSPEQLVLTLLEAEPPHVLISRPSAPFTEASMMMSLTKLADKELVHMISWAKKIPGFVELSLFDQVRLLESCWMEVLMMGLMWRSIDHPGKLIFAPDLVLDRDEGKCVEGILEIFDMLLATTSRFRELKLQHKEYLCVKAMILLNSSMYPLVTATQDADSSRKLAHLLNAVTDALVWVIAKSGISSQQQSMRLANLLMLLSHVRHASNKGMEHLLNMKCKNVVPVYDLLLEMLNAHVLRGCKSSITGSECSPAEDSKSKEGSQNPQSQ", "test": "Activity at ERbeta receptor up to 10 uM by transactivation assay"}, "Canis familiaris [11]": {"system": "Canis familiaris", "test": "Antidiabetic activity in Beagle dog assessed as reduction in total cholesterol level at 1 mg/kg, po once daily for 14 days relative to control", "type": "functional, Canis lupus familiaris", "set-up": "scale not given: the % may be the effect or the level left"}, "[12]": {"biological_target": "Peroxisome proliferator-activated receptor alpha (Canis lupus familiaris, UniProt Q95N78)", "sequence (Q95N78 whole entry)": "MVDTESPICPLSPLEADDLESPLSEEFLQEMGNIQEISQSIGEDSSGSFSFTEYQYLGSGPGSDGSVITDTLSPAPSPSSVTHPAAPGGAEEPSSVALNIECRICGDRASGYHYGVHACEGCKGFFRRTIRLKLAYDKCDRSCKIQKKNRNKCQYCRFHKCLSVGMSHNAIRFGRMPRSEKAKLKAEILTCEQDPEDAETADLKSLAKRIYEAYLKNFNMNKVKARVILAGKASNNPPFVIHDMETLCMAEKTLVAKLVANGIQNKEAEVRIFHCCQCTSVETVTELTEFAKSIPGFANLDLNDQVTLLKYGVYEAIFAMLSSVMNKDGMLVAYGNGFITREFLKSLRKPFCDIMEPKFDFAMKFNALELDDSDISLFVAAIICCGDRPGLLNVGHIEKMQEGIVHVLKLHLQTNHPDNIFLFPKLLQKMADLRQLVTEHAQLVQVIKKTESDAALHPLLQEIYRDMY", "test": "Agonist activity at dog PPARalpha receptor", "type": "functional"}, "Mus musculus [13]": {"system": "Mus musculus", "test": "Antidiabetic activity in C57BLKS/J-m+/+Leprdb db/db mouse assessed as reduction in plasma glucose levels at 1 mg/kg, po once daily for 11 days relative to control", "type": "functional", "set-up": "scale not given: the % may be the effect or the level left"}, "[14]": {"biological_target": "Nuclear receptor subfamily 1 group I member 2 (Homo sapiens, UniProt O75469)", "sequence (O75469 whole entry)": "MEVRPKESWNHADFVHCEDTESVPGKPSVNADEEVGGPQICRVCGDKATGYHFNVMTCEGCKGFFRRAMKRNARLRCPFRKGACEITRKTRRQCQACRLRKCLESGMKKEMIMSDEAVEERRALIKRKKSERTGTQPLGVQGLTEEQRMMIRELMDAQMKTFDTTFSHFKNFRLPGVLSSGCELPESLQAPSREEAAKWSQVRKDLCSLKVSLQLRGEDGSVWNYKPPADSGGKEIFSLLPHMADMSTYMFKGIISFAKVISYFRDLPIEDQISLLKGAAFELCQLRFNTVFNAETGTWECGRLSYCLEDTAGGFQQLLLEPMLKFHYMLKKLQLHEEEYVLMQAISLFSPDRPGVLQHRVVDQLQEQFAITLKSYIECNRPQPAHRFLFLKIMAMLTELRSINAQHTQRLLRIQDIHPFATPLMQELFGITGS", "test": "Binding affinity to PXR up to 10 uM"}, "[15]": {"biological_target": "Estrogen receptor beta (Homo sapiens) (UniProt Q92731)", "test": "Binding affinity to ERbeta up to 10 uM"}, "Rattus norvegicus [16]": {"system": "Rattus norvegicus", "test": "Antidiabetic activity in Zucker fa/fa rat assessed as decrease in free fatty acid levels at 3 mg/kg, po once daily for 7 days", "type": "functional, organism-based", "set-up": "dose 3 mg/kg"}, "Syrian golden hamster [17]": {"system": "Syrian golden hamster", "test": "Antidiabetic activity in Syrian golden hamster assessed as reduction in triglyceride level at 0.3 mg/kg, po once daily for 9 days relative to control", "type": "functional, Mesocricetus auratus", "set-up": "scale not given: the % may be the effect or the level left"}, "Mus musculus [18]": {"system": "Mus musculus", "test": "Antidiabetic activity in ob/ob mouse assessed as reduction in plasma triglyceride levels at 10 mg/kg, po once daily for 5 days relative to control", "type": "functional", "set-up": "scale not given: the % may be the effect or the level left"}, "Cytochrome P450 2C19": {"biological_target": "Cytochrome P450 2C19 (Homo sapiens, UniProt P33261)", "sequence (P33261 whole entry)": "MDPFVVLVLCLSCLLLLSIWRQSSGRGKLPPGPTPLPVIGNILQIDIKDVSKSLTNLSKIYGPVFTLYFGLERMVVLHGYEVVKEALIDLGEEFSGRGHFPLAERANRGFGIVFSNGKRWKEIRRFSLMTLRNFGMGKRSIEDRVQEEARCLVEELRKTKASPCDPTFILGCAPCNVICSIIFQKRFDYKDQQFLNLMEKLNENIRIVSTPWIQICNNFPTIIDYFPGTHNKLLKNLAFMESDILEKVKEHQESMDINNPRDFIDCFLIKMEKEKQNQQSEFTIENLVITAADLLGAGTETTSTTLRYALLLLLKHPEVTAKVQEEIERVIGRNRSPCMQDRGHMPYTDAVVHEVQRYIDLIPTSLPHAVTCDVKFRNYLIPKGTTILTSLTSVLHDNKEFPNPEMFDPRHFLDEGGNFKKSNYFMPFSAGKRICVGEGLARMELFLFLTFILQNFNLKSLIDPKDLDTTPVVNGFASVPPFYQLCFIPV", "test": "Inhibition of CYP2C19", "type": "ADME"}, "Mus musculus [19]": {"system": "Mus musculus", "test": "Antidiabetic activity in high fat diet-fed streptozotocin-treated mouse assessed as reduction in plasma glucose levels at 30 mg/kg, po once daily for 12 days relative to control", "type": "functional", "set-up": "scale not given: the % may be the effect or the level left"}, "[20]": {"biological_target": "Glucocorticoid receptor (Homo sapiens) (UniProt P04150)", "sequence (P04150 whole entry)": "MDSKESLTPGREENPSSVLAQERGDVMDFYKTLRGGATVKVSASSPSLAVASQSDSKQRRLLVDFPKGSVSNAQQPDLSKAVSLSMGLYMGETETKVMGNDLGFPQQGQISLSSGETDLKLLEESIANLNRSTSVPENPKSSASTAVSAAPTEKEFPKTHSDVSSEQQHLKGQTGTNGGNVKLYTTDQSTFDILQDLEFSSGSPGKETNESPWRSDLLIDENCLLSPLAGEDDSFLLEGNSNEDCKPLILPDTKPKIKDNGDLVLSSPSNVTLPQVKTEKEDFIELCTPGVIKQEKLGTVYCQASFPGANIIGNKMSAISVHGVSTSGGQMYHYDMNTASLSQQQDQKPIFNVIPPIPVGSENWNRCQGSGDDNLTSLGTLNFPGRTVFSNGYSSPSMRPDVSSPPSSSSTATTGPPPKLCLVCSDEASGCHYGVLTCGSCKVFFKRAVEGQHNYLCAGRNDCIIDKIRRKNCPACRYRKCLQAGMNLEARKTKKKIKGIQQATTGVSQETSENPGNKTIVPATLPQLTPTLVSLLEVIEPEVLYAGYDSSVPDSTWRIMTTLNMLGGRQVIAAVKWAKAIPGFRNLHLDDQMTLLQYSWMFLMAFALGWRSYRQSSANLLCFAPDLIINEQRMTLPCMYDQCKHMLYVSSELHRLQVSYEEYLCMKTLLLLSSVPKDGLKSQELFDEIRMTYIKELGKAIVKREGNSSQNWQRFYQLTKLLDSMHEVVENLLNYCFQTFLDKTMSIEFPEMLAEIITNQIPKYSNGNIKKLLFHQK", "test": "Activity at GR receptor up to 10 uM by transactivation assay"}, "Mus musculus [21]": {"system": "Mus musculus", "test": "Antidiabetic activity in C57BLKS/J-m+/+Leprdb db/db mouse assessed as reduction in plasma triglyceride levels at 3 mg/kg, po once daily for 11 days relative to control", "type": "functional", "set-up": "scale not given: the % may be the effect or the level left"}, "[22]": {"biological_target": "T1, Peroxisome proliferator-activated receptor gamma (Homo sapiens, UniProt P37231)", "T1 sequence (P37231 whole entry)": "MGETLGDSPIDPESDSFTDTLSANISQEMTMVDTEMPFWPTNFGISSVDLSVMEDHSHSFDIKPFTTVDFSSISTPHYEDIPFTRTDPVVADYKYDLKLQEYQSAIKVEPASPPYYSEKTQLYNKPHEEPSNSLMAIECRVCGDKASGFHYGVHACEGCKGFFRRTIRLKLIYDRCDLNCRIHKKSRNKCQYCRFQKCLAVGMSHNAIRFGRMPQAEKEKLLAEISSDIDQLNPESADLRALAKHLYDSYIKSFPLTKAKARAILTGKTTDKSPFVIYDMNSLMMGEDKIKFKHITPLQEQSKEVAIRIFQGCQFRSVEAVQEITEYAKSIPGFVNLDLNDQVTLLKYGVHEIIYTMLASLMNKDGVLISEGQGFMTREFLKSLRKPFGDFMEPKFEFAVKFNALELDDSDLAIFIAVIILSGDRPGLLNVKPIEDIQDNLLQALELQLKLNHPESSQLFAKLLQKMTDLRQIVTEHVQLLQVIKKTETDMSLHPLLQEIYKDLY", "description": "Agonist activity at human PPARgamma receptor expressed in african green monkey COS1 cells co-transfected with fused yeast Gal4-DBD by transactivation assay"}, "[23]": {"test": "Cmax in C57BLKS/J-m+/+Leprdb db/db mouse at 3 mg/kg, po once daily for 11 days", "type": "ADME, organism-based", "set-up": "dose 3 mg/kg, route oral", "conditions": "in vivo"}, "Rattus norvegicus [24]": {"system": "Rattus norvegicus", "test": "Antidiabetic activity in Zucker fa/fa rat assessed as decrease in triglyceride levels at 10 mg/kg, po once daily for 7 days", "type": "functional, organism-based", "set-up": "dose 10 mg/kg"}, "Mus musculus [25]": {"system": "Mus musculus", "test": "Antidiabetic activity in C57BLKS/J-m+/+Leprdb db/db mouse assessed as reduction in plasma glucose levels at 10 mg/kg, po once daily for 11 days relative to control", "type": "functional", "set-up": "scale not given: the % may be the effect or the level left"}, "[26]": {"test": "AUC in Syrian golden hamster at 0.3 mg/kg, po once daily for 9 days", "type": "ADME, organism-based, Mesocricetus auratus", "set-up": "dose 0.3 mg/kg, route oral", "conditions": "plasma"}, "Rattus norvegicus [27]": {"system": "Rattus norvegicus", "test": "Antidiabetic activity in Zucker fa/fa rat assessed as decrease in free fatty acid levels at 15 mg/kg, po once daily for 7 days", "type": "functional, organism-based", "set-up": "dose 15 mg/kg"}, "Syrian golden hamster [28]": {"system": "Syrian golden hamster", "test": "Antidiabetic activity in Syrian golden hamster assessed as reduction in triglyceride level at 1 mg/kg, po once daily for 9 days relative to control", "type": "functional, Mesocricetus auratus", "set-up": "scale not given: the % may be the effect or the level left"}, "Rattus norvegicus [29]": {"system": "Rattus norvegicus", "test": "Antidiabetic activity in Zucker fa/fa rat assessed as decrease in free fatty acid levels at 100 mg/kg, po once daily for 7 days", "type": "functional, organism-based", "set-up": "dose 100 mg/kg"}}, "note": "Active and inactive are the calls of the source. The calls are words filed in the database; no cut-off is given here.", "data": [{"smiles": "CC[C@@H](Oc1cccc(Cn2c(C)c(C(=O)c3ccc(Cl)cc3)c3ccc(OC(F)(F)F)cc32)c1)C(=O)O", "values": [{"measurement": "Activity", "setting": "Syrian golden hamster [1]", "result": 21.9, "unit": "%"}, {"measurement": "AUC at 264 h", "setting": "[2]", "result": 9.6, "unit": "µM·h"}, {"measurement": "AUC at 216 h", "setting": "[3]", "result": 2.11, "unit": "µM·h"}, {"measurement": "Activity", "setting": "Canis familiaris [4]", "result": 26, "unit": "%"}, {"measurement": "Activity", "setting": "[5]", "result": "inactive"}, {"measurement": "IC50", "setting": "Cytochrome P450 2D6", "result": 7, "unit": "µM"}, {"measurement": "Activity", "setting": "Rattus norvegicus [6]", "result": "Non-toxic"}, {"measurement": "AUC at 288 h", "setting": "[7]", "result": 8.2, "unit": "µM·h"}, {"measurement": "AUC at 336 h", "setting": "[8]", "result": 21.4, "unit": "µM·h"}, {"measurement": "Activity", "setting": "Syrian golden hamster [9]", "result": 51.4, "unit": "%"}, {"measurement": "Activity", "setting": "[10]", "result": "inactive"}, {"measurement": "Activity", "setting": "Canis familiaris [11]", "result": 12.8, "unit": "%"}, {"measurement": "EC50", "setting": "[12]", "result": 0.00055, "unit": "µM"}, {"measurement": "Activity", "setting": "Mus musculus [13]", "result": 78, "unit": "%"}, {"measurement": "Activity", "setting": "[14]", "result": "Not Active"}, {"measurement": "Activity", "setting": "[15]", "result": "inactive"}, {"measurement": "Activity", "setting": "Rattus norvegicus [16]", "result": "Active"}, {"measurement": "Activity", "setting": "Syrian golden hamster [17]", "result": 10.1, "unit": "%"}, {"measurement": "Activity", "setting": "Mus musculus [18]", "result": 50, "unit": "%"}, {"measurement": "IC50", "setting": "Cytochrome P450 2C19", "result": 91, "unit": "µM"}, {"measurement": "Activity", "setting": "Mus musculus [19]", "result": 103, "unit": "%"}, {"measurement": "Activity", "setting": "[20]", "result": "inactive"}, {"measurement": "Activity", "setting": "Mus musculus [21]", "result": 85, "unit": "%"}, {"measurement": "EC50", "setting": "[22]", "result": 0.002, "unit": "µM"}, {"measurement": "Cmax", "setting": "[23]", "result": 5.4, "unit": "µM"}, {"measurement": "Activity", "setting": "Rattus norvegicus [24]", "result": "Active"}, {"measurement": "Activity", "setting": "Mus musculus [25]", "result": 101, "unit": "%"}, {"measurement": "AUC at 216 h", "setting": "[26]", "result": 0.13, "unit": "µM·h"}, {"measurement": "Activity", "setting": "Rattus norvegicus [27]", "result": "Active"}, {"measurement": "Activity", "setting": "Syrian golden hamster [28]", "result": 30.7, "unit": "%"}, {"measurement": "Activity", "setting": "Rattus norvegicus [29]", "result": "Active"}]}]}
